This note sets out measurements from patent US20200270265A1, “TETRACYCLIC PYRIDONE COMPOUNDS AS ANTIVIRALS” (Novartis AG, priority 2016, published 2020).

Holding throughout (assay type): in vivo
The nature of data set [1]: Pharmacokinetics in dog (iv and PO). Conditions: iv 0.5 mg/kg, PO 1.0 mg/kg.
Data set [2] is described as follows: Pharmacokinetics in rat (iv and PO). Conditions: iv 1.0 mg/kg, PO 2.0 mg/kg.
Data set [3] can be described thus: Pharmacokinetics in mice (iv and PO). Conditions: iv 1.0 mg/kg, PO 2.0 mg/kg.

Regarding `COCCCOc1cc2c(cc1OC)-c1cc(=O)c(C(=O)O)cn1[C@H]1[C@@H]2CCC1(C)C` [Compound 1.1, (3aS,12bR)-10-methoxy-11-(3-methoxypropoxy)-3,3-dimethyl-7-oxo-1,2,3,3a,7,12b-hexahydrocyclopenta[c]pyrido[2,1-a]isoquinoline-6-carboxylic acid], the “Oral BA” value is recorded as 93 % F in data set [1], 97 % F in data set [2] and 59 % F in data set [3]. Further, the T1/2term came to 5.9 h in data set [1], 2.4 h in data set [2] and 1.6 h in data set [3].
Take `COCCCOc1cc2c(cc1OC)-c1c(F)c(=O)c(C(=O)O)cn1[C@H]1[C@@H]2CCC1(C)C` [Compound 3.1, (3aS,12bR)-8-fluoro-10-methoxy-11-(3-methoxypropoxy)-3,3-dimethyl-7-oxo-1,2,3,3a,7,12b-hexahydrocyclopenta[c]pyrido[2,1-a]isoquinoline-6-carboxylic acid]: the “Oral BA” value was found to be 96 % F in data set [1], 57 % F in data set [2] and 87 % F in data set [3]. The figures for the T1/2term in data set [1], in data set [2] and in data set [3] were 7.2 h, 9.2 h and 3.8 h, respectively.
As to `COCCCOc1cc2c(cc1OC)-c1cc(=O)c(C(=O)O)cn1[C@H]1[C@@H]2OCC1(C)C` [Compound 4.1, (3aR,12bR)-10-methoxy-11-(3-methoxypropoxy)-3,3-dimethyl-7-oxo-3,3a,7,12b-tetrahydro-2H-furo[3,2-c]pyrido[2,1-a]isoquinoline-6-carboxylic acid], the “Oral BA” value in data set [1] worked out at 94 % F; in data set [2] it was 65 % F; in data set [3] it was 100 % F. The values for the T1/2term in data set [2] and in data set [3] were 1.2 h and 1.8 h, respectively.
